We go through 24 compounds from patent publication US8557796B2, “Substituted 1-oxa-2,8-diaza-spiro [4,5] dec-2-ene derivatives and related treatment methods” (Gruenenthal GmbH, priority 2001, dated 2013).

For this experiment, the target named is T1, 5HT-uptake (Rattus norvegicus, UniProt P31652).
T1 construct: synaptosomes from rat brain regions were freshly isolated; from tissue; host or cells: P2 synaptosome fraction from rat brain regions
Briefly: Serotonin uptake inhibition (5HT uptake) in synaptosomes. The class given is biochemical. The settings on record: rat brain synaptosomes.

T1 sequence (P31652 whole entry): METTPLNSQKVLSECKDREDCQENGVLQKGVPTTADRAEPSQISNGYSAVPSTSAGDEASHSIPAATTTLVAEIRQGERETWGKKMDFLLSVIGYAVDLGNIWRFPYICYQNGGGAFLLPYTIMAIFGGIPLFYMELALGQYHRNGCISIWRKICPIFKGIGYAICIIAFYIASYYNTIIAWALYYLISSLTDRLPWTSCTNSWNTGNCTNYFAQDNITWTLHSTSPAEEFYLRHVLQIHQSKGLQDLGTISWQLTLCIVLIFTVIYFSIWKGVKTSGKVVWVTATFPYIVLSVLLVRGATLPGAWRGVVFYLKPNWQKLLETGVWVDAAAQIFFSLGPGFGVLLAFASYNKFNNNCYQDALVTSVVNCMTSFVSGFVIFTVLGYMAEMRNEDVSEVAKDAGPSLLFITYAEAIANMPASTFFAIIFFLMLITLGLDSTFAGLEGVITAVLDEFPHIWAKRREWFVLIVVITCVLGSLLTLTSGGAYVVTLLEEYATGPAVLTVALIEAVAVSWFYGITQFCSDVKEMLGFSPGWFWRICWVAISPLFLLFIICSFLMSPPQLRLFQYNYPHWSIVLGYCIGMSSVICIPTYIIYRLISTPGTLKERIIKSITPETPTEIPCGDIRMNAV
From the text: Tests on Serotonin Uptake (5HT Uptake Inhibition)
In order to be able to carry out these in vitro studies, synaptosomes from rat brain regions were freshly isolated.

Compound `Cc1ccc(S(=O)(=O)N2CCC3(CC2)CC(C(=O)NCc2cc(Cl)cc(Cl)c2)=NO3)cc1` [Example 63, 8-(toluene-4-sulphonyl)-1-oxa-2,8-diaza-spiro[4,5]dec-2-ene-3-carboxylic acid 3,5-dichlorobenzylamide] yielded an inhibition at 10 µM of 55%. Turning to `O=C(C1=NOC2(CCN(S(=O)(=O)c3cccc(C(F)(F)F)c3)CC2)C1)N1CCN(Cc2ccc3ccccc3c2)CC1` [Example 35, (4-naphthalen-2-ylmethyl-piperazin-l-yl)-[8-(3-trifluoromethyl-benzenesulphonyl)-1-oxa-2,8-diaza-spiro[4,5]dec-2-en-3-yl]-methanone], the “5HT-uptake, 10 μM, % inhibition” value amounted to 44%. For the compound `CN(C)S(=O)(=O)N1CCC2(CC1)CC(C(=O)NCCc1ccc(Cl)cc1)=NO2` [Example 58, 8-dimethylsulphamoyl-1-oxa-2,8-diaza-spiro[4,5]dec-2-ene-3-carboxylic acid [2-(4-chlorophenyl)-ethyl]-amide], 10 µM produced 55% inhibition. `Cc1cc(C(=O)N2CCC3(CC2)CC(C(=O)NCC(C)C)=NO3)ccc1Br` [Example 88, 8-(4-bromo-3-methyl-benzoyl)-1-oxa-2,8-diaza-spiro[4,5]dec-2-ene-3-carboxylic acid isobutyl-amide] came in with an inhibition at 10 µM of 46%. The compound `COc1ccc(S(=O)(=O)N2CCC3(CC2)CC(C(=O)NC(CC(C)C)C(=O)OC(C)(C)C)=NO3)cc1` (stereo not drawn) [Example 147, 2-{[8-(4-methoxy-benzenesulphonyl)-1-oxa-2,8-diaza-spiro[4,5]dec-2-ene-3-carbonyl]-amino}-4-methyl-pentanoic acid tert-butyl ester] showed an inhibition at 10 µM of 67%. `CCCS(=O)(=O)N1CCC2(CC1)CC(C(=O)NCC(C)C)=NO2` [Example 82, 8-(propane-1-sulphonyl)-1-oxa-2,8-diaza-spiro[4,5]dec-2-ene-3-carboxylic acid isobutyl-amide] gave an inhibition at 10 µM of 42%. `O=C(NCc1cccs1)C1=NOC2(CCN(C(=O)c3ccccc3Cl)CC2)C1` [Example 152, 8-(2-chloro-benzoyl)-1-oxa-2,8-diaza-spiro[4,5]dec-2-ene-3-carboxylic acid (thiophen-2-ylmethyl)-amide] registered an inhibition at 10 µM of 41%.

With `Cc1ccc(S(=O)(=O)N2CCC3(CC2)CC(C(=O)N(CCC#N)Cc2ccccc2)=NO3)cc1` [Example 28, 8-(toluene-4-sulphonyl)-1-oxa-2,8-diaza-spiro[4,5]dec-2-ene-3-carboxylic acid benzyl-(2-cyano-ethyl)-amide], the inhibition at 10 µM is 43%.

As for `CN(CCc1c[nH]c2ccccc12)C(=O)C1=NOC2(CCN(S(=O)(=O)c3ccc(OC(F)(F)F)cc3)CC2)C1` [Example 16, 8-(4-trifluoromethoxy-benzenesulphonyl)-1-oxa-2,8-diaza-spiro[4,5]dec-2-ene-3 carboxylic acid [2-(1 H-indo1-3-yl)-ethyl]-methyl-amide], the “5HT-uptake, 10 μM, % inhibition” value was determined as 60%.

`Cc1cnc(C(=O)N2CCN(C(=O)C3=NOC4(CCN(S(=O)(=O)c5ccc(F)cc5)CC4)C3)CC2)cn1` [Example 76, [8-(4-fluoro-benzenesulphonyl)-1-oxa-2,8-diaza-spiro[4,5]dec-2-ene-3-yl]-[4-(5-methyl-pyrazine-2-carbonyl)-piperazin-1-yl]-methanone] had an inhibition at 10 µM of 42%. As for `O=C(NC1CCN(Cc2ccc(C(F)(F)F)cc2)C1)C1=NOC2(CCN(S(=O)(=O)c3cccs3)CC2)C1` (stereo not drawn) [Example 26, 8-(thiophene-2-sulphonyl)-1-oxa-2,8-diaza-spiro[4,5]dec-2-ene-3-carboxylic acid [1-(4-trifluoromethyl-benzyl)-pyrrolidin-3-yl]-amide], testing at 10 µM gave an inhibition of 65%.

As to `CCN(CC)c1ccc(C(=O)NNC(=O)C2=NOC3(CCN(S(=O)(=O)c4cccs4)CC3)C2)cc1` [Example 10, 4-diethylamino-benzoic acid N′-[8-(thiophene-2-sulphonyl)-1-oxa-2,8-diaza-spiro[4,5]dec-2-ene-3-carbonyl]-hydrazide], testing at 10 µM gave an inhibition of 40%. As for `CCSCCNC(=O)C1=NOC2(CCN(S(=O)(=O)N(C)C)CC2)C1` [Example 161], the “5HT-uptake, 10 μM, % inhibition” value is on record as 44%. On the same count and under the same terms, the figure for `COc1ccc(OC)c(CN(Cc2ccco2)C(=O)C2=NOC3(CCN(S(=O)(=O)c4ccc(F)cc4)CC3)C2)c1` [Example 160] is 50%. `CCc1ccc(C(=O)N2CCC3(CC2)CC(C(=O)NCc2cccs2)=NO3)cc1` [Example 52, 8-(4-ethyl-benzoyl)-1-oxa-2,8-diaza-spiro[4,5]dec-2-ene-3-carboxylic acid (thiophen-2-ylmethyl)-amide] gave an inhibition at 10 µM of 60%. In turn, `CN(C)c1cccc(C(=O)N2CCC3(CC2)CC(C(=O)NCCC#N)=NO3)c1` [Example 43, 8-(3-dimethylamino-benzoyl)-1-oxa-2,8-diaza-spiro[4,5]dec-2-ene-3-carboxylic acid (2-cyano-ethyl)-amide] returned an inhibition at 10 µM of 41%. As to `N#CCCN(Cc1cccnc1)C(=O)C1=NOC2(CCN(S(=O)(=O)c3cc(Cl)ccc3Cl)CC2)C1` [Example 99, 8-(2,5-dichloro-benzenesulphonyl)-1-oxa-2,8-diaza-spiro[4,5]dec-2-ene-3-carboxylic acid (2-cyano-ethyl)-pyridin-3-ylmethyl-amide], the inhibition at 10 µM came out at 44%. With `CN(C)S(=O)(=O)N1CCC2(CC1)CC(C(=O)N1CCN(c3ncnc4sccc34)CC1)=NO2` [Example 70, 3-(4-thieno[2,3-d]pyrimidin-4-yl-piperazine-1-carbonyl)-1-oxa-2,8-diaza-spiro[4,5]dec-2-ene-8-sulphonic acid dimethylamide], testing at 10 µM gave an inhibition of 54%. `CCSCCNC(=O)C1=NOC2(CCN(C(=O)c3ccc(Br)cc3)CC2)C1` [Example 154]: the “5HT-uptake, 10 μM, % inhibition” value was 48%. For the compound `O=C(C1=NOC2(CCN(S(=O)(=O)c3cccc(C(F)(F)F)c3)CC2)C1)N1CCN(CCCc2ccccc2)CC1` [Example 83, [4-(3-phenyl-propyl)-piperazin-1-yl]-[8-(3-trifluoromethyl-benzenesulphonyl)-1-oxa-2,8-diaza-spiro[4,5]dec-2-en-3-yl]-methanone], 10 µM produced 52% inhibition. The compound `O=C(NCCc1ccc(Cl)cc1)C1=NOC2(CCN(S(=O)(=O)c3cccs3)CC2)C1` [Example 60, 8-(thiophene-2-sulphonyl)-1-oxa-2,8-diaza-spiro[4,5]dec-2-ene-3-carboxylic acid [2-(4-chlorophenyl)-ethyl]-amide] showed an inhibition at 10 µM of 65%. In turn, `CCOc1ccccc1CNC(=O)C1=NOC2(CCN(S(=O)(=O)Cc3ccccc3)CC2)C1` [Example 51, 8-phenylmethanesulphonyl-1-oxa-2,8-diaza-spiro[4,5]dec-2-ene-3-carboxylic acid 2-ethoxy-benzylamide] yielded an inhibition at 10 µM of 49%. The compound `CCOC(=O)CCNC(=O)C1=NOC2(CCN(C(=O)c3cc(F)cc(F)c3)CC2)C1` [Example 81, 3-{[8-(3,5-difluoro-benzoyl)-1-oxa-2,8-diaza-spiro[4,5]dec-2-ene-3-carbonyl]-amino}-propionic acid ethyl ester] had an inhibition at 10 µM of 46%. For `CN(Cc1cccnc1)C(=O)C1=NOC2(CCN(S(=O)(=O)c3cc(Cl)ccc3Cl)CC2)C1` [Example 92, 8-(2,5-dichloro-benzenesulphonyl)-1-oxa-2,8-diaza-spiro[4,5]dec-2-ene-3-carboxylic acid methyl-pyridin-3-ylmethyl-amide], at 10 µM the inhibition was 51%.
